Reference: PubChem BioAssay AID1963443 (Molecular Pharmacology Branch, DTP, NCI, 2024)
Each block holds one compound with its values, some of them ahead of it.

Test system: MDA-MB-231 complex spheroids, growth inhibition
Assay: Anticancer human tumor MDA-MB-231 cell line growth inhibition [Asc];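 note: spheroids exposed to compounds for 7 days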
Conditions: for IC50: curve of first compound; for viability, T/C: stronger effect = lower value
Description: Multicellular complex tumor spheroid response to apoptosis pathway targeting inhibitors Alrizomadlin, Pelcitoclax, and Dasminapant in combination with a variety of drugs and investigational agents in selected tumor cell lines
The MDM2 inhibitor alrizomadlin, the Bcl-2/Bcl-xL inhibitor pelcitoclax, and the IAPs inhibitor dasminapant were evaluated both individually and in combination with standard of care and investigational anticancer small molecules within a complex spheroid model of solid tumors. . Complex spheroids include a stromal component modeled by human endothelial cells (HUVEC) and fibroblasts modeled by human mesenchymal stem cells (MSCs). The concentration ranges selected for each drug and investigational agent were based upon clinically achievable concentrations if the clinical Cmax of the agent was known.
Compounds. The drugs and investigational agents: alrizomadlin (APG-115; NSC831270), pelcitoclax (APG-1252; NSC835773), dasminapant (APG-1387;NSC834197), TAK-243 (NSC785004), copanlisib (NSC809693), olaparib (NSC753686), talazoparib (NSC767125), cobimetinib (NSC 768068), eltanexor (KPT-8602, NSC 794443), abemaciclib (NSC 768073), sotorasib (NSC818433), adagrasib (NSC 831453), MRTX-1133 (NSC 836407), Iadademestat (ORY1001, NSC 806812), and RMC-4630 (NSC839698), were obtained from the NCI Developmental Therapeutics Program Chemical Repository. The FDA-approved anticancer drug set is available from the Developmental Therapeutics Program at https://dtp.cancer.gov/organization/dscb/obtaining/available plates.htm. […] The stock solutions were prepared in dimethyl sulfoxide (DMSO, Sigma-Aldrich, St. Louis, MO, cat. D2650) at 800-fold the tested concentration and stored at -70 degrees C prior to their use. All drugs and investigational agents were tested over a range starting from a high concentration at or near the clinical Cmax and decreasing in half-log increments. If the clinical Cmax for an agent had not been determined, the highest concentration tested was 10 microM.
The patient-derived cancer (PDC) cell lines include five colon adenocarcinomas: 186277-243-T-J2-PDC, 616215-338-R-J1-PDC, 439559-082-T-J2-PDC, 463943-066-T-J2-PDC, and 519858-162-T-J1-PDC; three pancreatic carcinomas: 323965-272-R-J2-PDC, 521955-158-R6-J3-PDC, and 521955-158-R2-J5-PDC; two uterine sarcomas: 327498-152-R-J2-PDC and 993429-296-R-J1-PDC; two rhabdomyosarcomas: 755483-174-R-J1-PDC and 772245-204-R-J1-PDC; two soft tissue sarcomas: 126254-015-R-J1-PDC and 494315-158-R-J1-PDC; two malignant fibrous histiocytomas: 317291-083-R-J1-PDC and 596521-263-R-J1-PDC; two breast carcinomas: 171881-019-R-J1-PDC and 885512-296-R-J2-PDC; and one ovarian carcinoma: 6556581-035-R-J-PDC were obtained from the NCI PDMR, (https://pdmr.cancer.gov). The established cell lines HSSY-2 synovial sarcoma (RRID:CVCL 8719), SYO-1 synovial sarcoma (RRID:CVCL_7146), MPNST malignant peripheral neural sheath tumor were obtained from the Sloan Kettering Institute. The following established cell lines were purchased from the American Type Culture Collection (ATCC, Manassas, VA), Sor the received from the NCI repository:, PANC-1 pancreatic carcinoma (CRL-1469, RRID:CVCL_0480), OVCAR-5 ovarian carcinoma (RRID:CVCL_1628), OVCAR-8 ovarian carcinoma (RRID:CVCL_1629), , MCF-7 breast carcinoma (CRL-12584, RRID:CVCL_0031), MDA-MB-231 breast carcinoma (CRL-12532, RRID:CVCL_0062), NCI-H1876 small cell lung carcinoma (CRL-5902, RRID:CVCL_1503), NCI-H510A small cell lung carcinoma (HTB-184, RRID:CVCL_1565), NCI-H1417 (CRL-5869, RRID:CVCL_1469), and NCI-H196 small cell lung carcinoma (CRL-5823, RRID:CVCL_1509). Dr. Peter Houghton (Greehey Children's Cancer Research Institute, University of Texas Health Science Center, San Antonio, TX) provided Rh-18 rhabdomyosarcoma (RRID:CVCL_1659). Pooled donor human umbilical vein endothelial cells (HUVEC, Lonza, cat. CC-2519) and human mesenchymal stem cells (hMSC, Lonza, cat. PT-2501) were purchased from Lonza (Walkersville, MD).
Cell Culture. […]

[1] = second compound 0.03 µM, first compound 0.00316 µM
[2] = second compound 0.03 µM, first compound 0.01 µM
[3] = second compound 0.03 µM, first compound 0.0316 µM
[4] = second compound 0.03 µM, first compound 0.1 µM
[5] = second compound 0.0949 µM, first compound 0.00316 µM
[6] = second compound 0.0949 µM, first compound 0.01 µM
[7] = second compound 0.0949 µM, first compound 0.0316 µM
[8] = second compound 0.0949 µM, first compound 0.1 µM
[9] = second compound 0.3 µM, first compound 0.00316 µM
[10] = second compound 0.3 µM, first compound 0.01 µM
[11] = second compound 0.3 µM, first compound 0.0316 µM
[12] = second compound 0.3 µM, first compound 0.1 µM
[13] = second compound 0.949 µM, first compound 0.00316 µM
[14] = second compound 0.949 µM, first compound 0.01 µM
[15] = second compound 0.949 µM, first compound 0.0316 µM
[16] = second compound 0.949 µM, first compound 0.1 µM
[17] = second compound 3 µM, first compound 0.00316 µM
[18] = second compound 3 µM, first compound 0.01 µM
[19] = second compound 3 µM, first compound 0.0316 µM
[20] = second compound 3 µM, first compound 0.1 µM

IC50 (second compound 0.03 µM): 305 nM
IC50 (second compound 0.0949 µM): 479 nM
IC50 (second compound 0.3 µM): > 1000 nM
IC50 (second compound 0.949 µM): > 1000 nM
IC50 (second compound 3 µM): > 1000 nM
SMILES: CCN1CCN(Cc2ccc(Nc3ncc(F)c(-c4cc(F)c5nc(C)n(C(C)C)c5c4)n3)nc2)CC1 + CCN1C(C(=O)NC23CCC(C(=O)O)(CC2)CC3)C(c2cccc(Cl)c2F)C2(C(=O)Nc3cc(Cl)ccc32)C12CCCCC2
viability, T/C [1]: 102%
viability, T/C [2]: 94.3%
viability, T/C [3]: 76.6%
viability, T/C [4]: 59%
viability, T/C (second compound 0.03 µM, first compound 0.316 µM): 49.8%
viability, T/C (second compound 0.03 µM, first compound 1 µM): 46.6%
viability, T/C [5]: 109%
viability, T/C [6]: 98.8%
viability, T/C [7]: 79.7%
viability, T/C [8]: 61.8%
viability, T/C (second compound 0.0949 µM, first compound 0.316 µM): 50.5%
viability, T/C (second compound 0.0949 µM, first compound 1 µM): 48.1%
viability, T/C [9]: 103%
viability, T/C [10]: 99.9%
viability, T/C [11]: 86.9%
viability, T/C [12]: 67%
viability, T/C (second compound 0.3 µM, first compound 0.316 µM): 55%
viability, T/C (second compound 0.3 µM, first compound 1 µM): 52.7%
viability, T/C [13]: 105%
viability, T/C [14]: 101%
viability, T/C [15]: 85.5%
viability, T/C [16]: 67.2%
viability, T/C (second compound 0.949 µM, first compound 0.316 µM): 52.8%
viability, T/C (second compound 0.949 µM, first compound 1 µM): 53%
viability, T/C [17]: 94.8%
viability, T/C [18]: 86.6%
viability, T/C [19]: 73.6%
viability, T/C [20]: 54.5%
viability, T/C (second compound 3 µM, first compound 0.316 µM): 49.1%
viability, T/C (second compound 3 µM, first compound 1 µM): 52.6%

IC50 (second compound 0.03 µM): 78.3 nM
IC50 (second compound 0.0949 µM): 70.5 nM
IC50 (second compound 0.3 µM): 84.7 nM
IC50 (second compound 0.949 µM): 84.5 nM
IC50 (second compound 3 µM): 67.4 nM
SMILES: NC(=O)C(=Cn1cnc(-c2cc(C(F)(F)F)cc(C(F)(F)F)c2)n1)c1cncnc1 + CCN1C(C(=O)NC23CCC(C(=O)O)(CC2)CC3)C(c2cccc(Cl)c2F)C2(C(=O)Nc3cc(Cl)ccc32)C12CCCCC2
viability, T/C (second compound 0.03 µM, first compound 0.000949 µM): 103%
viability, T/C (second compound 0.03 µM, first compound 0.003 µM): 92.8%
viability, T/C (second compound 0.03 µM, first compound 0.00949 µM): 82.4%
viability, T/C (second compound 0.03 µM, first compound 0.03 µM): 60%
viability, T/C (second compound 0.03 µM, first compound 0.0949 µM): 52.5%
viability, T/C (second compound 0.03 µM, first compound 0.3 µM): 23.6%
viability, T/C (second compound 0.0949 µM, first compound 0.000949 µM): 111%
viability, T/C (second compound 0.0949 µM, first compound 0.003 µM): 103%
viability, T/C (second compound 0.0949 µM, first compound 0.00949 µM): 90.4%
viability, T/C (second compound 0.0949 µM, first compound 0.03 µM): 62.6%
viability, T/C (second compound 0.0949 µM, first compound 0.0949 µM): 47.3%
viability, T/C (second compound 0.0949 µM, first compound 0.3 µM): 21.7%
viability, T/C (second compound 0.3 µM, first compound 0.000949 µM): 112%
viability, T/C (second compound 0.3 µM, first compound 0.003 µM): 102%
viability, T/C (second compound 0.3 µM, first compound 0.00949 µM): 87%
viability, T/C (second compound 0.3 µM, first compound 0.03 µM): 63.1%
viability, T/C (second compound 0.3 µM, first compound 0.0949 µM): 52.5%
viability, T/C (second compound 0.3 µM, first compound 0.3 µM): 25%
viability, T/C (second compound 0.949 µM, first compound 0.000949 µM): 117%
viability, T/C (second compound 0.949 µM, first compound 0.003 µM): 107%
viability, T/C (second compound 0.949 µM, first compound 0.00949 µM): 93.4%
viability, T/C (second compound 0.949 µM, first compound 0.03 µM): 66.9%
viability, T/C (second compound 0.949 µM, first compound 0.0949 µM): 50.4%
viability, T/C (second compound 0.949 µM, first compound 0.3 µM): 26.8%
viability, T/C (second compound 3 µM, first compound 0.000949 µM): 102%
viability, T/C (second compound 3 µM, first compound 0.003 µM): 94.2%
viability, T/C (second compound 3 µM, first compound 0.00949 µM): 79.4%
viability, T/C (second compound 3 µM, first compound 0.03 µM): 59.9%
viability, T/C (second compound 3 µM, first compound 0.0949 µM): 46.9%
viability, T/C (second compound 3 µM, first compound 0.3 µM): 31.6%

IC50 (second compound 0.03 µM): > 100 nM
IC50 (second compound 0.0949 µM): > 100 nM
IC50 (second compound 0.3 µM): > 100 nM
IC50 (second compound 0.949 µM): > 100 nM
IC50 (second compound 3 µM): > 100 nM
SMILES: NC1CCC(NC2CC2c2ccccc2)CC1 (stereo not given) + CCN1C(C(=O)NC23CCC(C(=O)O)(CC2)CC3)C(c2cccc(Cl)c2F)C2(C(=O)Nc3cc(Cl)ccc32)C12CCCCC2
viability, T/C (second compound 0.03 µM, first compound 0.000316 µM): 91.2%
viability, T/C (second compound 0.03 µM, first compound 0.001 µM): 94.5%
viability, T/C [1]: 93.4%
viability, T/C [2]: 95.2%
viability, T/C [3]: 91.8%
viability, T/C [4]: 96.2%
viability, T/C (second compound 0.0949 µM, first compound 0.000316 µM): 101%
viability, T/C (second compound 0.0949 µM, first compound 0.001 µM): 103%
viability, T/C [5]: 101%
viability, T/C [6]: 101%
viability, T/C [7]: 100%
viability, T/C [8]: 102%
viability, T/C (second compound 0.3 µM, first compound 0.000316 µM): 102%
viability, T/C (second compound 0.3 µM, first compound 0.001 µM): 104%
viability, T/C [9]: 101%
viability, T/C [10]: 102%
viability, T/C [11]: 102%
viability, T/C [12]: 105%
viability, T/C (second compound 0.949 µM, first compound 0.000316 µM): 105%
viability, T/C (second compound 0.949 µM, first compound 0.001 µM): 105%
viability, T/C [13]: 105%
viability, T/C [14]: 105%
viability, T/C [15]: 104%
viability, T/C [16]: 106%
viability, T/C (second compound 3 µM, first compound 0.000316 µM): 90%
viability, T/C (second compound 3 µM, first compound 0.001 µM): 91%
viability, T/C [17]: 89.8%
viability, T/C [18]: 88.2%
viability, T/C [19]: 87.5%
viability, T/C [20]: 89.2%
